Assay results from patent US20240300913A1, “FLAVONE DERIVATIVE AND USE THEREOF FOR IMPROVING PULMONARY FIBROSIS” (A-CHEMBIO CO., LTD, priority 2023, published 2024).

Legend:
HULEC-5a cells [1] = assay: MTT cytotoxicity evaluation in HULEC-5a cells; format: cell-based, human; conditions: incubated for 24, 48, and 72 hours
Method: (§1) To confirm the effect of novel flavone derivative I on cell viability, HULEC-5a, human lung microvascular endothelial cells, were used to examine cell viability with MTT [3-(4,5-dimethylthiazol-2-yl)-2,5-diphenyltetrazolium bromide]. After being suspended in a medium, HULEC-5a cells were dispensed into a 96-well plate and incubated for 24 hours. […] After incubation, all media was removed, and MTT was diluted (0.5 mg/mL) in phosphate-buffered saline (PBS). Then, 200 μL of the diluted MTT was dispensed into each well, and incubation was performed in a CO2 incubator for 4 hours. After 4 hours, the MTT solution was removed, and 160 μL of dimethyl sulfoxide (DMSO) was dispensed into each well to dissolve the formazan precipitate for 30 minutes. Next, the absorbance was measured at 570 nm.
(§2) Cytotoxicity tests of novel flavone derivative II (Achem II) on A549 cells, HULEC-5a cells, and HLF cells were performed in the same manner as in Example 1 above, using the MTT assay. The results thereof are shown in FIGS. 17 to 19 as cell viability (%) after 24, 48, and 72 hours compared to that of the control group, the untreated sample group.
as §2, with “III” for “II”, “III)” for “II)”, “27” for “17”, “29” for “19”

A549 cells [2] = assay: Effect upon TGF-β1 treatment in A549 cells (western blot of protein levels); format: cell-based
Method: 3.5*10^5 A549 cells, derived from lung cancer, were suspended in a medium, dispensed into a 60-mm plate, and incubated for 48 hours. After 48 hours of incubation, each plate was treated with TGF-β1 (10 ng/ml) alone or in combination with novel flavone derivative I at varying concentrations or a predetermined concentration and/or nintedanib (NIDB), a therapeutic drug for idiopathic pulmonary fibrosis and interstitial lung disease as a positive control. […] Next, only the supernatant was collected by centrifugation (at 14,000 rpm for 10 minutes) at 4° C., and the proteins were separated by SDS-polyacrylamide gel electrophoresis (SDS-PAGE). The separated proteins were transferred to a polyvinylidene difluoride membrane (PVDF membrane), reacted in 5% nonfat dry milk for 3 hours, and then reacted with primary antibodies at 4° C. for 12 hours. After 12 hours, the proteins further reacted with secondary antibodies corresponding to the respective primary antibodies. Then, the protein band was examined, according to the manufacturer's protocol, using an ECL kit.
The effect of novel flavone derivative II upon TGF-β1 treatment in A549 cells was evaluated in the same manner as in Example 1 above. FIGS. 20 and 21 show the results thereof.
The effect of novel flavone derivative III upon TGF-β1 treatment in A549 cells was evaluated in the same manner as in Example 1 above.

A549 cells [3] = assay: Effect of bleomycin treatment on A549 cells (western blot of protein levels); format: cell-based; conditions: BLM and/or compound, 3, 24, and 48 hours
Method: A549 cells, derived from lung cancer, were incubated at different cell numbers depending on the sample treatment time. 4.5×10^5 cells (30 minutes to 12 hours), 4.0×10^5 cells (24 hours), and 3.5×10^5 cells (48 hours) were suspended in the respective media, dispensed into a 60-mm plate, and incubated for 24 hours. After 24 hours, each plate was treated with bleomycin (BLM) alone or in combination with novel flavone derivative I at a predetermined concentration. After a predetermined period of incubation, the cells were lysed with RIPA lysis buffer ([50 mM Tris]-Cl (pH, 7.4), 1% NP-40, 150 mM NaCl, 1 mM EDTA, and 1 mM phenylmethylsulfonyl fluoride (PMSF)) containing MG-132 (10 μM). Next, only the supernatant was collected by centrifugation (at 14,000 rpm for 10 minutes) at 4° C., and the proteins were separated by SDS-polyacrylamide gel electrophoresis (SDS-PAGE). The separated proteins were transferred to a polyvinylidene difluoride membrane (PVDF membrane), reacted in 5% nonfat dry milk for 3 hours, and then reacted with primary antibodies at 4° C. for 12 hours. After 12 hours, the proteins further reacted with secondary antibodies corresponding to the respective primary antibodies. Then, the protein band was examined, according to the manufacturer's protocol, using an ECL kit. […]

HULEC-5a cells [4] = assay: Effect of bleomycin treatment on Hulec-5a cells (western blot of protein levels); format: cell-based, human; conditions: Hulec-5a cells treated with bleomycin, FIG. 14
Method: 1.2×10^6 Hulec-5a cells, derived from pulmonary vessels, were suspended in a medium, dispensed into a 100-mm plate, and incubated for 24 hours. After 24 hours, each plate was treated with BLM alone or in combination with novel flavone derivative I at varying concentrations or a predetermined concentration. After a predetermined period of incubation, the cells were lysed with RIPA lysis buffer ([50 mM Tris]-Cl (pH, 7.4), 1% NP-40, 150 mM NaCl, 1 mM EDTA, and 1 mM phenylmethylsulfonyl fluoride (PMSF)) containing MG-132 (10 μM). Next, only the supernatant was collected by centrifugation (at 14,000 rpm for 10 minutes) at 4° C., and the proteins were separated by SDS-polyacrylamide gel electrophoresis (SDS-PAGE). The separated proteins were transferred to a polyvinylidene difluoride membrane (PVDF membrane), reacted in 5% nonfat dry milk for 3 hours, and then reacted with primary antibodies at 4° C. for 12 hours. After 12 hours, the proteins further reacted with secondary antibodies corresponding to the respective primary antibodies. Then, the protein band was examined, according to the manufacturer's protocol, using an ECL kit.

HLF cells = assay: MTT cytotoxicity evaluation in HLF cells; format: cell-based, human; conditions: all treatment concentrations up to 10 μM, incubated for 24, 48, and 72 hours, compared to untreated control
Method: as §1, with “viability,” for “viability, HULEC-5a,”, “fibroblasts (HLF)” for “microvascular endothelial cells,”, “HLF” for “HULEC-5a”
as §2
as §2, with “III” for “II”, “III)” for “II)”, “27” for “17”, “29” for “19”

| SMILES | cytotoxicity (HULEC-5a cells [1]; treatment concentrations of up to 5 μM, MTT) | levels of fibronectin, HIF-1α, NOX2, NOX4, vimentin, p-EGFR, EGFR, and p-AKT proteins, increased by TGF-β1 treatment (A549 cells [2]; 10 ng/mL TGF-β1 and 5 μM compound, 24 hours, FIG. 7) | levels of fibronectin, HIF-1α, and p-c-Src proteins, increased by TGF-β1 treatment (A549 cells [2]; 10 ng/mL TGF-β1 and 5 μM compound, 48 hours, FIG. 8) | levels of pulmonary fibrosis-related factors (fibronectin, α-SMA, HIF-1α, NOX1, NOX2, and NOX4), increased by BLM treatment (A549 cells [3]) | levels of pulmonary fibrosis-related factors (fibronectin, α-SMA, HIF-1α, NOX2, and NOX4) (HULEC-5a cells [4]) | cell viability (HLF cells) [%] | cell viability (HULEC-5a cells [1]; all treatment concentrations up to 10 μM, compared to untreated control) [%] | levels of Col3, Col4, fibronectin, and NOX4 proteins, increased by TGF-β treatment (A549 cells [2]; 10 ng/mL TGF-β1 and compound, 24 hours, FIGS. 20 and 21) |
| --- | --- | --- | --- | --- | --- | --- | --- | --- |
| COc1ccc(-c2c(-c3ccc(O)c(O)c3)oc3cc(OC)c(OC)cc3c2=O)cc1 [novel flavone derivative I, 2-(3,4-dihydroxyphenyl)-6,7-dimethoxy-3-(4-methoxyphenyl)-4H-chromen-4-one] | No cytotoxicity was observed | decreased | decreased | decreased | decreased | ≥ 80 |  |  |
| COc1ccc(-c2c(-c3ccc(O)c(OC)c3)oc3cc(OC)c(OC)cc3c2=O)cc1 [novel flavone derivative II, 2-(4-hydroxy-3-methoxyphenyl)-6,7-dimethoxy-3-(4-methoxyphenyl)-4H-chromen-4-one] |  |  |  |  |  | ≥ 80 | ≥ 80 | decreased |
